In patent publication US20090298938A1, “USE OF SEMI SYNTHETIC ANALOGUES OF BOSWELLIC ACIDS FOR ANTICANCER ACTIVITY” (COUNCIL OF SCIENTIFIC & INDUSTRIAL RESEARCH, priority 2008, published 2009):

Tests used:
Type in all cases: cell-based, human
[1] = tested on: HT-29 colon cancer cells; assay: In vitro cytotoxicity, SRB assay, HT-29
Method: (§1) The semi-synthetic analogues of formula 1 have been subjected to in vitro cytotoxicity screening in a panel of human cancer cell lines using following methodology. The human cancer cell lines were obtained either from National Center for Cell Science, Pune or National Cancer Institute, Fredrick, Md., USA. Cells were grown in tissue culture flasks in complete growth medium (RPMI-1640 medium with 2 mM glutamine, 100 µg/ml streptomycin, pH 7.4, sterilized by filtration and supplemented with 10% sterilized fetal calf serum and 100 units/ml penicillin before use) at 37° C. in an atmosphere of 5% CO2 and 90% relative humidity in a carbon dioxide incubator. The cells at sub-confluent stage were harvested from flask by treatment with trypsin (0.05% trypsin in PBS containing 0.02% EDTA) and suspended in complete growth medium. Cells with cell viability of more than 97% by trypan blue exclusion technique were used for determination of cytotoxicity.
(§2) Test material were dissolved in DMSO (dimethyl sulphoxide) to obtain a stock solution of 2×10^−2M. The stock solution was serially diluted with complete growth medium containing 50 μg/ml of gentamycin to obtain working test solutions of required concentrations.
(§3) The suspension of human cancer cell lines of required cell density in complete growth medium was prepared and cell suspension (100 μl/well) of each cell line was added to wells of 96-well tissue culture plate. Suitable blanks and controls were also included. The plates were incubated for 24 hrs in a carbon dioxide incubator.
(§4) The working test solutions of different concentrations (100 μl/well) were added after 24 hr incubation. The plates were further incubated for 48-hrs after addition of the test materials. After incubation, the cell growth was stopped by gently layering of 50 μl of TCA (50% trichloroacetic acid) on top of the medium in all the wells. The plates were incubated at 4° C. for one hour to fix the cells attached to bottom of the wells. Liquids of all the wells were gently pipetted out and discarded. The plates were washed five times with distilled water to remove TCA, growth medium, low molecular weight metabolites, serum proteins etc. The plates were air dried.
(§5) Cell growth was measured by staining with sulforhodamine B dye (SRB). The SRB solution (100 μl, 0.4% in 1% acetic acid) was added to each well and the plates were incubated at room temperature for 30 minutes. The unbound SRB was quickly removed by washing the wells five times with 1% acetic acid solution and plates were air dried. Tris buffer (100 μl, 0.01 M, pH 10.4) was added to all the wells and plates were gently stirred for 5 minutes on a mechanical stirrer. The optical density was recorded on ELISA reader at 540 nm.
(§6) Cell growth in the presence of test material was calculated in terms of the percentage of growth inhibition. The in vitro cytotoxicity of four natural boswellic acid i.e. boswellic acid, acetyl boswellic acid, 11-keto-boswellic acids, acetyl-11-ketio-boswellic acid on various cancer cell lines has been examined and typical results are given in the succeeding table. Based on their cytotoxicity profile the analogues of formula 1 were studied for inhibition of cell proliferation by using MTT assay method. […] The induction of apoptosis in HL-60 cells was also validated by generation of DNA fragmentation.
(§7) Assay of cytotoxicity potential of test materials is a primary standard procedure for seeking lead molecules for development of anti-cancer leads. Human cancer cells after trypsinization into single cell suspension were grown in 96-well culture plate for 24 hr. Cells were treated with indicated doses of test analogues and incubated in CO2 incubator for 48 hr. Thereafter, cells were stained with sulforhodamine B dye, and the bound dye was eluted to measure the optical density indicating cell growth in Elisa Reader at 540 nm [Monks et al., 1991]. […]

[2] = tested on: SW-620 colon cancer cells; assay: In vitro cytotoxicity, SRB assay, SW-620
Method: as §1, §2, §3, §4, §5, §6, §7

[3] = tested on: PC-3 cells; assay: In vitro cytotoxicity, SRB assay, PC-3
Method: as §1, §2, §3, §4, §5, §6, §7

[4] = tested on: Colo-205 colon cancer cells; assay: In vitro cytotoxicity, SRB assay, Colo-205
Method: as §1, §2, §3, §4, §5, §6, §7

[5] = tested on: Hep-2 cells; assay: In vitro cytotoxicity, SRB assay, Hep-2
Method: as §1, §2, §3, §4, §5, §6, §7

[6] = Conc. 5 × 10^5 (r27-r29: 5 × 10^−5), 48 hr, Table 1
[7] = Conc. 5 × 10^−5, 48 hr, natural boswellic acids

Compound	Growth inhibition % HT-29 Colon [1, 6]	Growth inhibition % SW-620 Colon [2, 6]	Growth inhibition % PC-3 [3, 6]	Growth inhibition % Colo-205 Colon [4, 6]	Growth inhibition % Hep-2 [5, 6]	other results
CCC(=O)OC1CCC2(C)C(CCC3(C)C2C(=O)C=C2C4C(C)C(C)CCC4(C)CCC23C)C1(C)C(=O)O (centres unmarked) [1, R = COCH2CH3, R1 = H, R4 + R5 = O]	67%	75%	99%	80%	65%	
CO[C@@]12[C@H](COC(N)=O)C3=C(C(=O)C(C)=C(N)C3=O)N1C[C@@H]1N[C@@H]12 [Mitomycin C, reference compound]						Growth inhibition % HT-29 Colon ([1]; Conc. 1 × 10^6, Table 2): 33%; Growth inhibition % HT-29 Colon ([1]; Conc. 1 × 10^7, Table 2): 19%; Growth inhibition % SW-620 Colon ([2]; Conc. 1 × 10^6, Table 2): 57%; Growth inhibition % SW-620 Colon ([2]; Conc. 1 × 10^7, Table 2): 27%; Growth inhibition % PC-3 ([3]; Conc. 1 × 10^6, Table 2): 24%; Growth inhibition % PC-3 ([3]; Conc. 1 × 10^7, Table 2): 18%; Growth inhibition % Colo-205 Colon ([4]; Conc. 1 × 10^6, Table 2): 28%; Growth inhibition % Colo-205 Colon ([4]; Conc. 1 × 10^7, Table 2): 41%; Growth inhibition % Hep-2 ([5]; Conc. 1 × 10^6, Table 2): 46%; Growth inhibition % Hep-2 ([5]; Conc. 1 × 10^7, Table 2): 12%
CC1CCC2(C)CCC3(C)C(=CC(=O)C4C5(C)CCC(OC(=O)CCC(=O)O)C(C)(C(=O)O)C5CCC43C)C2C1C (centres unmarked) [1,R3O = —COCH2CH2COOH R1 = H, R4 + R5 = O]	16%	2%	60%	29%	17%	
CCCCCC(=O)OC1CCC2(C)C(CCC3(C)C2C(=O)C=C2C4C(C)C(C)CCC4(C)CCC23C)C1(C)C(=O)O (centres unmarked)	96%	100%	73%	95%	100%	
CCC(=O)OC1CCC2(C)C(CCC3(C)C2C(=O)C=C2C4C(C)C(C)CCC4(C)CCC23C)C1(C)C(=O)O (centres unmarked) [1, R3O = COCH2CH3, R1 = H, R4 + R5 = O]	92%	90%	61%	92%	72%	
CC1CCC2(C)CCC3(C)C(=CC(=O)C4C5(C)CCC(O)C(C)(C(=O)O)C5CCC43C)C2C1C (centres unmarked) [1, R = H, R1 = H, X = O]	46%	49%	68%	52%	53%	
Acetyl Boswellic acid [reference compound]						Growth inhibition % HT-29 Colon [1, 7]: 96%; Growth inhibition % SW-620 Colon [2, 7]: 97%; Growth inhibition % PC-3 [3, 7]: 45%; Growth inhibition % Colo-205 Colon [4, 7]: 95%; Growth inhibition % Hep-2 [5, 7]: 88%
CCCC(=O)OC1CCC2(C)C(CCC3(C)C2CC=C2C4C(C)C(C)CCC4(C)CCC23C)C1(C)C(=O)O (centres unmarked) [1, R3O = COCH2CH2CH3, R1 = H, R4 = R5 = H]	98%	101%	75%	91%	99%	
CC1CCC2(C)CCC3(C)C(=CCC4C5(C)CCC(O)C(C)(C(=O)O)C5CCC43C)C2C1C (centres unmarked) [1, R3 = H, R1 = H, R4 = R5 = H]	73%	65%	69%	85%	66%	
C[C@H]1[C@H](C)CC[C@]2(C)CC[C@]3(C)C(=CC(=O)[C@@H]4[C@@]5(C)CC[C@@H](O)[C@](C)(C(=O)O)[C@@H]5CC[C@]43C)[C@H]12 [11-keto-boswellic acid, reference compound]						Growth inhibition % HT-29 Colon [1, 7]: 38%; Growth inhibition % SW-620 Colon [2, 7]: 28%; Growth inhibition % PC-3 [3, 7]: 100%; Growth inhibition % Colo-205 Colon [4, 7]: 50%; Growth inhibition % Hep-2 [5, 7]: 34%
CC1CCC2(C)CCC3(C)C(=CC(=O)C4C5(C)CCC(OC=O)C(C)(C(=O)O)C5CCC43C)C2C1C (centres unmarked) [1, R3O = COH, R1 = H, R4 + R5 = O]	62%	70%	99%	76%	56%	
CC(=O)OC1CCC2(C)C(CCC3(C)C2C(=O)C=C2C4C(C)C(C)CCC4(C)CCC23C)C1(C)C(=O)O (centres unmarked) [1, R3O = COCH3, R1 = H, R4 + R5 = O]	45%	48%	60%	56%	50%	
CCCC(=O)OC1CCC2(C)C(CCC3(C)C2C(=O)C=C2C4C(C)C(C)CCC4(C)CCC23C)C1(C)C(=O)O (centres unmarked)				94%		
CC1CCC2(C)CCC3(C)C(=CCC4C5(C)CCC(OC=O)C(C)(C(=O)O)C5CCC43C)C2C1C (centres unmarked) [1, R3O = COH, R1 = H, R4 = R5 = H]	79%	92%	99%	93%	75%	
CC(=O)O[C@@H]1CC[C@@]2(C)[C@@H](CC[C@]3(C)[C@@H]2C(=O)C=C2[C@@H]4[C@@H](C)[C@H](C)CC[C@]4(C)CC[C@]23C)[C@@]1(C)C(=O)O [Acetyl-11-keto-boswellic acid, reference compound]						Growth inhibition % HT-29 Colon [1, 7]: 91%; Growth inhibition % SW-620 Colon [2, 7]: 91%; Growth inhibition % PC-3 [3, 7]: 79%; Growth inhibition % Colo-205 Colon [4, 7]: 89%; Growth inhibition % Hep-2 [5, 7]: 62%
CC1CCC2(C)CCC3(C)C(=CC(=O)C4C5(C)CCC(OC(=O)CCC(=O)O)C(C)(C(=O)O)C5CCC43C)C2C1C (centres unmarked) [1,R3O = —COCH2CH2COOH, R1 = H, R4 + R5= O]	3%	0%	38%	1%	7%	
CCCC(=O)OC1CCC2(C)C(CCC3(C)C2CC=C2C4C(C)C(C)CCC4(C)CCC23C)C1(C)C(=O)O (centres unmarked) [1,R3O = COCH2CH2CH3, R1 = H, R4 = R5 = H]	54%	83%	80%	71%	65%	
